18 compounds from patent US7504538B2, “Amide or thioamide derivatives and their use in the treatment of pain” (Cara Therapeutics, Inc., priority 2003, dated 2009) can be followed below.

For one assay, the target named is T1, hCB2-R (Homo sapiens, UniProt P34972).
T1 construct: expressed in transfected cells; membranes
Briefly: CB2 ligand binding assay ([3H]-CP55940 displacement, CHO-K1 membranes). As to conditions: 0.3-0.5 nM [3H]-CP55940, CB2 membranes, 2 h at 30° C.; read-out: Binding constants (Ki) to hCB2-R. From the text: (§1) The biological assays used were essentially set up as described in Munro, S., Thomas, K. L., Abu-Shaar, M. in “Molecular characterisation of a peripheral receptor for cannabinoids” Nature 365:61-65 (1993) and Kim, S. H. and Chung, J. M. in “An experimental model for peripheral neuropathy produced by segmental spinal nerve ligation in the rat” Pain 50:355-363 (1992).
Monoclonal HEK cell lines with stable expression of the human CB1 receptor and CHO-K1 cell lines with stable expression of hCB2-R were established. The CB binding assays were performed with membranes prepared from these cell lines. The CB2 ligand binding mixture contains 0.3-0.5 nM [^3H]-CP55940, 7 μg of CB2 membranes and the test compounds in a concentration range of from 1.0×10^−4 to 1.0×10^−12 M. The assay buffer comprises 50 mM Tris-HCl (pH 7.4), 5 MM MgCl2, 2.5 mM EDTA and 5 mg/ml fatty acid-free bovine serum albumin. The binding mixtures are incubated for 2 h at 30° C. and terminated by rapid filtration (Brandel 96 well cell harvester) over 934AH filters (Whatman) followed by 6 washes with ice-cold binding buffer. The filters are dried and [^3H]-CP55940 bound radioactivity is determined by liquid scintillation counting. Non-specific binding is determined in the presence of 10 μM CP55940. The binding data is analysed with the program GraphPad Prism (provided by GraphPad Software, San Diego, Calif., USA).

Assay [1] concerns rats. Briefly: Formalin flinch test (inflammatory pain). The class given is in vivo. As to conditions: rat; for A50 Formalin Phase II: inflammatory phase (10-60 min); for A50 Formalin Phase I: tonic phase (first 10 min).
From the text: as §1
(§2) Inflammatory (Formalin flinch test) and chronic pain (L5/L6 nerve ligation injury) models were used as assays in both rats and mice.
Animals are habituated to the their local environment for about 30 min prior to testing. The formalin test is carried out in a 30×30×30 cm chamber with the front and bottom of the chambers made of clear plexiglass. Mirrors are placed at a 45° angle under the chambers in order to have an un-obstructive view of the paws. Animals are restrained manually and 2% formalin (aq) is injected subcutaneously into the planar surface of the left paw with a 30 gauge needle. The numbers of paw flinches are then recorded in 5 min intervals from the time of injection for a 60 min period. Elevations of the paw, licking and biting of the injected paw were counted as “flinches”. The tonic or “first phase” of the nociceptive response peaked at 5 min after formalin injection and the inflammatory or “second phase” peaked at 30 min after formalin injection. The number of flinches in the first 10 min were representative of the tonic phase and the number of flinches from 10 min until 60 min were representative of the inflammatory phase. Antinociception for both phase I and phase II was calculated as follows: % antinociception=100×(# of flinches in control animal−# of flinches in drug treated animal)/(# of flinches in control animal)
Potency (A50) is calculated from the full dose response curve for both phase I and phase II.

The subject of assay [2] is rats. The assay can be described thus: L5/L6 nerve ligation injury, thermal hyperalgesia. The class given is in vivo. As to conditions: rat.
From the text: as §1, §2
(§3) Nerve ligation injury was performed according to the method described previously (Kim and Chung). This methodology produces signs of tactile allodynia and thermal hyperalgesia. Rats were anesthetized with halothane and the L5 and L6 spinal nerves were exposed, carefully isolated, and tightly ligated with 4-0 silk suture distal to the dorsal root ganglia (DRG). After ensuring homeostatic stability the wounds were sutured, and the animals were allowed to recover in individual cages. Sham-operated rats were prepared in an identical fashion except that the L5 and L6 spinal nerves were not ligated. Compound 17 was tested in rats after L5/L6 nerve ligation. Compound administration was directly into the hind paw (i.paw) or into the peritoneal cavity (i.p.).

For assay [3], the system named is rats. Briefly: L5/L6 nerve ligation injury, tactile allodynia (von Frey). The class given is in vivo. As to conditions: rat.
From the text: as §1, §2
as §3, with “Compound administration was directly into the hind paw (i.paw) or into the peritoneal cavity (i.p.).” left out
In the evaluation of the tactile allodynia, the paw withdrawal threshold was determined in response to probing with calibrated von Frey filaments. […] The 50% paw withdrawal threshold was determined by the nonparametric method. […]

In general, Ki refers to the dissociation constant of the complex between target and ligand, obtained from inhibition or displacement.

T1 sequence (P34972 whole entry): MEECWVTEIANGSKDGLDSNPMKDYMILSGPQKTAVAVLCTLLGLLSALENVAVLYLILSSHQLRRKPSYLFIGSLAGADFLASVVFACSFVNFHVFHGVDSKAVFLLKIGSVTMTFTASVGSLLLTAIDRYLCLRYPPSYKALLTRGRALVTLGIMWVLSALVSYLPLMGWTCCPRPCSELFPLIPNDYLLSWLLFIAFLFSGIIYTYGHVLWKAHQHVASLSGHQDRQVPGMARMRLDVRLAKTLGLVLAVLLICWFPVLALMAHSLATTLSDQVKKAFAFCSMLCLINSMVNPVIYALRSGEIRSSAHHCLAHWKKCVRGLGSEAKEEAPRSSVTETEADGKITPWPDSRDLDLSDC

In the case of `NC(=O)[C@@H]1CCCC[C@H]1N(CCCC1CCCCC1)C(=O)Nc1ccccc1` (relative stereo) [Compound 7, trans-2-[1-(3-cyclohexylpropyl)-3-phenylureido]cyclo-hexanecarboxamide], the Ki on hCB2-R was found to be 1.5 µM.
With `C[C@@H](C(=O)N(CCCC(N)=O)CCCC1CCCCC1)c1ccccc1` [Compound 1, (R)-4-[(3-cyclohexylpropyl)-(2-phenylpropionyl)amino]-butyramide], the Ki at hCB2-R came out at 2.9 µM.
The same measure, in the same setting: the result for `NC(=O)CCCN(CCCCCCc1ccccc1)C(=O)Nc1ccccc1` [Compound 2, 4-[3-phenyl-1-(6-phenylhexyl)ureido]butyramide] reads 0.45 µM; that for `CCCCc1ccc(CN(CCCC(N)=O)C(=O)Nc2ccccc2)cc1` [Compound 3, 4-[1-(4-butylbenzyl)-3-phenylureido]butyramide], 0.12 µM; that for `CC(C)c1ccc(CN(CCCC(N)=O)C(=O)Nc2ccccc2)cc1` [Compound 4, 4-[1-(4-isopropylbenzyl)-3-phenylureido]butyramide], 0.78 µM.
On to `CC(C)CCCN(CCCC(N)=O)C(=O)Nc1ccccc1` [Compound 5, 4-[1-(4-methylpentyl)-3-phenylureido]butyramide], for which the Ki on hCB2-R amounted to 1.1 µM.
As for `O=C(CCCN(CCCC1CCCCC1)C(=O)Nc1ccccc1)NCc1ccc(Cl)cc1` [Compound 6, N-(4-chlorobenzyl)-4-[1-(3-cyclohexylpropyl)-3-phenyl-ureido]butyramide], the Ki on hCB2-R came out at 2.2 µM.
Still for that read-out and setting: the result for `NC(=O)CCCN(CCCC1CCCCC1)C(=O)Cc1ccc2ccccc2c1` [Compound 8, 4-[(3-cyclohexylpropyl)-(2-naphthalen-2-yl-acetyl)amino]-butyramide] reads 2.7 µM.
On to `NC(=O)CCCCCCCN(CCCC1CCCCC1)C(=O)Cc1ccc2ccccc2c1` [Compound 9, 8-[(3-cyclohexylpropyl)-(2-naphthalen-2-yl-acetyl)amino]-octanamide], for which the Ki on hCB2-R came to 15 µM.
Still for that read-out and setting: the result for `NC(=O)CCCN(CCCC1CCCCC1)C(=O)Nc1ccc2ccccc2c1` [Compound 10, 4-[1-(3-cyclohexylpropyl)-3-naphthalen-2-yl-ureido]-butyramide] reads 1 µM; that for `NC(=O)CCCN(CCc1ccc2ccccc2c1)C(=O)Nc1ccccc1` [Compound 11, 4-[1-(2-naphthalen-2-yl-ethyl)-3-phenylureido]butyr-amide], 0.77 µM.
Turning to `NC(=O)CCCN(CCC1CCCCC1)C(=O)Nc1ccccc1` [Compound 12, 4-[1-(2-cyclohexylethyl)-3-phenylureido]butyramide], the Ki on hCB2-R was 0.41 µM.
For `NC(=O)CCCN(CCc1ccccc1)C(=O)Nc1ccccc1` [Compound 13, 4-(1-phenethyl-3-phenylureido)butyramide], the Ki at hCB2-R came out at 0.45 µM.
The same measure, in the same setting: the result for `NC(=O)CCCN(Cc1ccccc1)C(=O)Nc1ccccc1` [Compound 14, 4-(1-benzyl-3-phenylureido)butyramide] reads 0.84 µM; that for `NC(=O)CCCN(CCCC1CCCC1)C(=O)Nc1ccccc1` [Compound 15, 4-[1-(3-cyclopentylpropyl)-3-phenylureido]butyr-amide], 0.21 µM.
As for `NC(=O)CCCN(CCCCCc1ccccc1)C(=O)Nc1ccccc1` [Compound 16, 4-[3-phenyl-1-(5-phenylpentyl)ureido]butyramide], the Ki on hCB2-R worked out at 0.13 µM.
On to `NC(=O)CCCN(CCCC1CCCCC1)C(=O)Nc1ccccc1` [Compound 17, 4-[1-(3-cyclohexylpropyl)-3-phenylureido]butyramide], for which the Ki on hCB2-R stood at 0.11 µM. In the assay on rats [1] (i. paw), the “A50 Formalin Phase II” value worked out at 28 mg/paw and the “A50 Formalin Phase I” value is under 10 mg/paw. In addition, in the assay with rats [1] (i.p.), the “A50 Formalin Phase II” value amounted to 0.01 mg/kg and the “A50 Formalin Phase I” value is listed as under 0.01 mg/kg. In the assay with rats [2] (L5/L6 spinal nerve ligation, 30 μg (in 50 μl) into the paw), the “antihyperalgesic response to the thermal testing” value is reported as 100%. Besides, the “A50 L5/L6 anti-hyperalgesia” value in the assay with rats [2] (i. paw) is reported as under 30 mg/paw. The same compound showed an antiallodynic effect in the assay on rats [3] (L5/L6 nerve ligation, 100 μg (in 50 μl) into the paw) of 90%. Moreover, the “A50 L5/L6 anti-allodynia” value with rats [3] (i. paw) is under 30 mg/paw.
For the compound `Cc1c(C(=O)c2cccc3ccccc23)c2cccc3c2n1[C@H](CN1CCOCC1)CO3` [WIN-55, 212-2, reference compound], in the assay on rats [1] (i. paw), the “A50 Formalin Phase II” value turned out to be 25 mg/paw and the “A50 Formalin Phase I” value turned out to be 12 mg/paw.
